Test results taken from patent US20240293367A1, “METHODS OF TREATING DISORDERS WITH A […]” (Cybin IRL Limited, priority 2023, published 2024).
Several values for one entry are separate records, joined by “and”; a condition that tells them apart may be missing. Identical values can stand only once. Like-named read-outs stand apart in the source and are kept apart here.

Experiment: Phase I/IIa clinical PK of oral psilocin-d10, plasma, noncompartmental analysis (Cohorts 1-6)
Assay type: in vivo, human
Conditions: for AUC(0-inf): read-out: AUC0-inf Mean (SD)
Protocol: Phase I/IIa, Randomized, Double-Blind, Placebo-Controlled Study which assesses the safety, tolerability, pharmacokinetics, and pharmacodynamics of multiple ascending oral doses of psilocin-d10 in participants with and without MDD (ClinicalTrials.gov Identifier: NCT05385783). All subjects receiving study medication in Cohorts 1-6 received oral psilocin-d10 powder in solution (0.1M citric acid+Tang orange drink, 30 mL dose in a dose cup) and subjects receiving placebo received a similar volume of Tang orange drink without the psilocin-d10 study drug. All subjects receiving study medication in the relative bioavailability (BA) cohort received powder-filled capsules containing psilocin-d10 benzenesulfonate salt by ingestion with approximately 240 mL room temperature water, or oral psilocin-d10 powder in solution (0.1M citric acid+Tang orange drink, 30 mL dose in a dose cup) in a cross-over design. Psilocin-d10 for the powder in solution dosage form was manufactured by Patheon Pharma Services, with an isotopic purity of 79.89%. Psilocin-d10 benzenesulfonate salt for the powder-filled capsule dosage form was manufactured by Patheon Pharma Services, with an isotopic purity of 85.20%.
Cohorts 1, 4, 5, and 6 of the study was comprised of participants with MDD. Cohorts 2, 3, and the relative BA cohort of the study were comprised of normal healthy volunteers (NHV). […] MDD participants had been on a stable dose of antidepressant medication for at least one month prior to screening with an inadequate response to that antidepressant medication as judged by the Investigator, and continued to receive their prescribed antidepressant throughout the course of the study.
Cohort 1. For Cohort 1, 2 sentinel subjects were randomized and dosed, including 1 subject who received a psilocin-d10 1 mg oral dose and 1 subject who received a placebo dose. After the sentinel subjects were dosed, an additional 2 subjects were dosed, including a replacement subject for one of the sentinel subjects who withdrew consent and one additional subject. In total, four Cohort 1 subjects received a first dose of study medication on Day 1, and 3 subjects received a second dose of study medication on Day 22. For the first dose, 2 subjects received an active psilocin-d10 1 mg dose and 2 subjects received placebo. For the second dose, 3 subjects received an active psilocin-d10 1 mg dose.
Cohort 2. For Cohort 2, 4 subjects were randomized and dosed on Day 1 (2 subjects on one day, 2 subjects on the next day), including 3 subjects who received a psilocin-d10 3 mg oral dose and 1 subject who received a placebo dose. These same 4 subjects were again dosed on Day 8 (2 subjects on one day, 2 subjects on the next day), with all 4 subjects receiving a psilocin-d10 8 mg oral dose (note the actual washout was 11 days between doses).
Cohort 3. For Cohort 3 Day 1, 4 subjects were randomized and dosed on Day 1 (2 subjects on one day, 2 subjects on the next day), including 3 subjects who received a psilocin-do 8 mg oral dose and 1 subject who received a placebo dose. […] Another subject was dosed and left the study after the 2-hour PK sampling and has limited PK samples available for analysis from 0 to 2 hours—this subject's PK data has thus been excluded from the analysis presented hereinafter. For Cohort 3 Day 8, 3 subjects were dosed on Day 8 with a psilocin-d10 10 mg dose (2 sentinel subjects were dosed on one day, 1 non-sentinel subject was dosed on the next day).
Cohorts 4 and 5. For Cohorts 4 and 5, 12 participants each (24 participants total) were randomized in a 3:1 ratio to receive 12 mg of psilocin-d10 or matched placebo in a single dosing session on Day 1. Following a 21-day interval, all participants received a dose of 12 mg psilocin-d10 on Day 22 (second dose for participants originally randomized to psilocin-d10, first dose for participants randomized to placebo), and were followed to Day 42.
Cohort 6. […]

[2H]C([2H])([2H])N(C([2H])([2H])[2H])C([2H])([2H])C([2H])([2H])c1c[nH]c2cccc(O)c12 [psilocin-d10, 3-(2-(bis(methyl-d3)amino)ethyl-1,1,2,2-d4)-1H-indol-4-ol]
CL/F Mean (SD) (1 mg oral, Cohort 1 MDD, Day 1 and Day 22 pooled): 101.08 (18.94) L/h | CL/F Mean (SD) (3 mg oral, Cohort 2 NHV, Day 1): 85.22 (11.21) L/h | Cmax Mean (SD) (8 mg oral, Cohorts 2 and 3 NHV, Day 1 and Day 8 pooled, 2 subjects excluded): 15.00 (4.85) ng/ml and 15.00^3 ng/ml | CL/F Mean (SD) (8 mg oral, Cohorts 2 and 3 NHV, pooled): 97.56 (31.21) L/h | AUC0-24 Mean (SD) (8 mg oral, Cohorts 2 and 3 NHV, pooled, 2 subjects excluded): 83.98 (21.46) h*ng/mL and 83.98^3 h*ng/mL | CL/F Mean (SD) (10 mg oral, Cohort 3 NHV, Day 8): 104.7 (40.25) L/h | CL/F Mean (SD) (12 mg oral, Cohort 4 MDD, Day 1 and Day 22): 85.32 (35.41) L/h | CL/F Mean (SD) (12 mg oral, Cohort 5 MDD, Day 1 and Day 22): 91.95 (25.38) L/h | CL/F Mean (SD) (12 mg oral, Cohorts 4 and 5 MDD, Day 1 and Day 22): 88.72 (30.45) L/h | CL/F Mean (SD) (16 mg oral, Cohort 6 MDD, all subjects incl. 3 with emesis): 128.11 (83.50) L/h | mean clearance (CL/F) (16 mg, 18 doses, no emesis): ~107.2 L/h | Observed Mean Cmax (16 mg, Cohort 6, N = 18, excluding 3 doses with vomiting postdose): 20.73^2 ng/mL | fold increase in mean Cmax, 16 mg (18 doses, no emesis) compared to 12 mg (1.33-fold increase in dose): ~1.1 fold | fold increase in mean AUC, 12 mg compared to 8 mg (1.5-fold increase in dose): 1.7 to 1.8 fold | fold increase in mean Cmax, 12 mg compared to 8 mg (1.5-fold increase in dose): ~1.2 fold | mean Cmax, fold higher, 8 mg dose compared to 3 mg dose (2.67-fold increase in dose): 2.45 fold | mean AUC0-24, AUClast and AUC0-inf, fold higher, 8 mg compared to 1 mg (8-fold increase in dose): 8.1 to 8.3 fold | mean Cmax, fold higher, 8 mg dose compared to 1 mg dose (8-fold increase in dose): 8.6 fold | fold increase in mean AUC, 16 mg (18 doses, no emesis) compared to 12 mg (human, plasma, oral): ~1.1 fold | mean AUC0-24, AUClast and AUC0-inf higher for 10 mg compared to 8 mg (human, plasma, oral): ~20% | mean AUC0-24, AUClast and AUC0-inf, fold higher, 3 mg compared to 1 mg (human, plasma, oral): 3.4 to 3.5 fold | mean Cmax lower for 10 mg dose cohort compared to 8 mg dose cohort (human, plasma, oral): ~10% | mean Cmax, fold higher, 3 mg dose compared to 1 mg dose (human, plasma, oral): 3.5 fold | Cmax (human, plasma, oral, 8 mg, Cohort 2, Day 8, N = 4, read-out: Observed Mean Cmax): 16.6 ng/mL | half-life (human, plasma, oral, 8 mg, range of means for 1, 3 and 8 mg doses, read-out: elimination half-life, on average): 251 to 325 min | Vd/F (human, plasma, oral, 16 mg, 18 doses, no emesis, read-out: mean volume of distribution (Vz/F)): ~834 L | AUC(0-t) (human, plasma, oral, 16 mg, Cohort 6, N = 18, excluding 3 doses with vomiting postdose, read-out: Observed Mean AUC0-24): 165 ng·h/mL | Cmax (human, plasma, oral, 16 mg, Cohort 6, N = 18, excluding 3 doses with vomiting postdose, read-out: Observed Mean Cmax): 20.7 ng/mL | half-life (human, plasma, oral, 16 mg, as given in the text, read-out: mean elimination half-life (T1/2) (converted)): 335 min | Vd/F (human, plasma, oral, range of means, 1 to 10 mg doses, read-out: apparent volume of distribution (Vz/F), on average): 584 to 761 L | concentration at 2 h (human, plasma, oral, 10 mg, Cohort 3 Day 8, read-out: plasma psilocin-d10 concentration of one subject at 2 hours postdose): 18.7 ng/mL | concentration at 4 h (human, plasma, oral, 10 mg, Cohort 3 Day 8, set ~20% below the 2-hour value, read-out: estimated plasma psilocin-d10 concentration of one subject at 4 hours postdose (missed sample)): 14.9 ng/mL | AUC(0-t) (human, plasma, po, 1 mg, 1 mg oral, Cohort 1 MDD, Day 1 and Day 22 pooled, read-out: AUC0-24 Mean (SD)): 10 ng·h/mL | AUC(0-inf) (human, plasma, po, 1 mg, 1 mg oral, Cohort 1 MDD, Day 1 and Day 22 pooled): 10.2 ng·h/mL | AUC(0-t) (human, plasma, po, 1 mg, 1 mg oral, Cohort 1 MDD, Day 1 and Day 22 pooled, read-out: AUClast Mean (SD)): 10 ng·h/mL | Cmax (human, plasma, po, 1 mg, 1 mg oral, Cohort 1 MDD, Day 1 and Day 22 pooled, read-out: Cmax Mean (SD)): 1.69 ng/mL | Cmax (human, plasma, po, 1 mg, 1 mg oral, Cohort 1 MDD, Day 1 and Day 22 pooled, read-out: Cmax Median): 1.7 ng/mL | half-life (human, plasma, po, 1 mg, 1 mg oral, Cohort 1 MDD, Day 1 and Day 22 pooled, read-out: T1/2 Mean (SD) (converted)): 251 min | Vd/F (human, plasma, po, 1 mg, 1 mg oral, Cohort 1 MDD, Day 1 and Day 22 pooled, read-out: Vz/F Mean (SD)): 608 L | AUC(0-t) (human, plasma, po, 3 mg, 3 mg oral, Cohort 2 NHV, Day 1, read-out: AUC0-24 Mean (SD)): 34.5 ng·h/mL | AUC(0-inf) (human, plasma, po, 3 mg, 3 mg oral, Cohort 2 NHV, Day 1): 35.6 ng·h/mL | AUC(0-t) (human, plasma, po, 3 mg, 3 mg oral, Cohort 2 NHV, Day 1, read-out: AUClast Mean (SD)): 34.5 ng·h/mL | Cmax (human, plasma, po, 3 mg, 3 mg oral, Cohort 2 NHV, Day 1, read-out: Cmax Mean (SD)): 5.91 ng/mL | Cmax (human, plasma, po, 3 mg, 3 mg oral, Cohort 2 NHV, Day 1, read-out: Cmax Median): 5.87 ng/mL | half-life (human, plasma, po, 3 mg, 3 mg oral, Cohort 2 NHV, Day 1, read-out: T1/2 Mean (SD) (converted)): 286 min | Vd/F (human, plasma, po, 3 mg, 3 mg oral, Cohort 2 NHV, Day 1, read-out: Vz/F Mean (SD)): 584 L | Cmax (human, plasma, po, 8 mg, 8 mg oral, Cohorts 2 and 3 NHV, Day 1 and Day 8 pooled, 2 subjects excluded, read-out: Cmax Mean (SD)): 15 ng/mL
